Columns and labels:
Type in all cases: in vivo, C57BL/6 mice
IL-23 = assay: Cytokine production assay (ELISA), IL-23 in blood serum and skin of IMQ-induced psoriasis-like mice; settings: blood serum samples and skin samples; glucosamine 300 mg/kg, cyclosporine A 10 and 20 mg/kg; co-administration vs each alone; alone vs control group (IMQ alone)
Procedure: (§1) To measure cytokine levels in blood serum, mouse blood serum was collected 24 hours after the final administration and stored at −70° C. until analysis. To measure cytokine levels in the skin tissues, the back skin of mice was removed and stored at −80° C. Thereafter, the skin tissues were homogenized using a Bullet Blender™ Blue (Next Advance, Averill Park, N.Y.) at 4° C. to obtain supernatants, and the supernatants were stored at −30° C. IL-17A, IL-22, IL-23, and TNF-α concentrations in the blood serum and the skin tissues of mice were measured using the Mouse IL-17A Quantikine ELISA Kit (R&D Systems, Minneapolis, Minn., USA), IL-22, IL-23 and TNF-α ELISA kits (eBioscience, San Diego, Calif., USA). Meanwhile, ELISA was performed according to the manufacturer's instructions.

IL-22 = assay: Cytokine production assay (ELISA), IL-22 in blood serum and skin of IMQ-induced psoriasis-like mice; settings: blood serum samples and skin samples; glucosamine 300 mg/kg, cyclosporine A 10 and 20 mg/kg; co-administration vs each alone; alone vs control group (IMQ alone)
Procedure: as §1

IL-17A = assay: Cytokine production assay (ELISA), IL-17A in blood serum and skin of IMQ-induced psoriasis-like mice; settings: blood serum samples and skin samples; glucosamine 300 mg/kg, cyclosporine A 10 and 20 mg/kg; co-administration vs each alone; alone vs control group (IMQ alone)
Procedure: as §1

[1] = test system: IMQ-induced psoriasis-like mouse model; assay: Skin lesion score (erythema+scaling+thickening) in IMQ-induced psoriasis-like mouse model; settings: for severity of psoriasis-like skin lesions (cumulative score erythema+scaling+thickening): oral, 7 days
Procedure: More specifically, hair on the backs of C57BL/6 mice was shaved off using an electric razor and then treated with a depilatory (Niclean, Ildong, Korea). For all other groups except a normal group, 62.5 mg of IMQ cream was applied daily to the shaved back area for 14 days.
On the other hand, the normal group as a negative control group was treated only with a vehicle cream (petrolatum).
The degree of (1) erythema, (2) scaling and (3) thickening was scored as 0 (none), 1 (mild), 2 (moderate) and 3 (severe). A cumulative dermatitis score (erythema+scaling+thickening) indicates the severity of psoriasis in back skin (scale: 0-9).
The clinical skin scores were calculated by summing the scores obtained on the basis of symptoms of erythema, scaling and thickening.

CD4+ CD25+ Treg cells = assay: Flow cytometry of regulatory T (Treg) cells from spleens of IMQ-induced psoriasis-like mice; settings: spleen cells; glucosamine 300 mg/kg, cyclosporine A 20 mg/kg; co-administration vs each alone; alone vs control group (IMQ alone)
Procedure: Single-cell suspensions prepared from spleens were stained with FITC-anti-CD4 (GK1.5) and PE-anti-CD25 (280406) (R&D Systems, Minneapolis, Minn., USA), and incubated in a PBS solution containing 2% FBS at 4° C. for 30 minutes under dark conditions. After incubation, the samples were washed twice and analyzed using CellQuest software (Becton Dickinson).

TNF-α = assay: Cytokine production assay (ELISA), TNF-α in blood serum and skin of IMQ-induced psoriasis-like mice; settings: blood serum samples and skin samples; glucosamine 300 mg/kg, cyclosporine A 10 and 20 mg/kg; co-administration vs each alone; alone vs control group (IMQ alone)
Procedure: as §1

## N[C@@H]1C(O)O[C@H](CO)[C@H](O)[C@@H]1O (stereo in doubt) [glucosamine]
IL-23
  IL-23 level: no significant difference
IL-22
  IL-22 level: no significant difference
IL-17A
  IL-17A level: no significant difference
[1]; glucosamine 300 mg/kg, cyclosporine A 10 and 20 mg/kg, oral once a day for a week, co-administration vs each alone, alone vs control group (IMQ alone)
  clinical skin scores: no significant difference
[1]; high doses alone: glucosamine 400 mg/kg, cyclosporine A 40 mg/kg
  severity of psoriasis-like skin lesions (cumulative score erythema+scaling+thickening): reduced
[1]; low doses alone: glucosamine 100, 200 and 300 mg/kg, cyclosporine A 10 and 20 mg/kg
  severity of psoriasis-like skin lesions (cumulative score erythema+scaling+thickening): no significant effect
CD4+ CD25+ Treg cells
  number of CD4+ CD25+ Treg cells: no significant difference
TNF-α
  level of TNF-α: no significant difference

— patent publication US20170360882A1, “COMPOSITION FOR PREVENTING, IMPROVING OR TREATING PSORIASIS COMPRISING IMMUNOMODULATOR AND GLUCOSAMINE” (DONGGUK UNIVERSITY INDUSTRY-ACADEMY COOPERATION FOUNDATION, priority 2014, published 2017)
